From patent US20120231073A1, “DEXLANSOPRAZOLE COMPOSITIONS” (DR. REDDY'S LABORATORIES, INC., priority 2008, published 2012)

What was measured:
[1] = Glass transition temperature (Tg) by differential scanning calorimetry; type: physicochemical
Experimental: The glass transition temperature (Tg) is determined for premixes using differential scanning calorimetry and the results are below:
The glass transition temperatures of the premix compositions are greater than that of dexlansoprazole (amorphous).

[2] = Particle size distribution using a Malvern instrument; type: physicochemical
Description: The D10, D50, and D90 values are useful ways for indicating a particle size distribution. D90 is the size value where at least 90 volume percent of the particles have a size smaller than the said value; Likewise D10 refers to 10 volume percent of the particles having a size smaller than the said value. D50 refers to at least 50 volume percent of the particles having a size smaller than the said value and D[4,3] value refers to the mean particle size. Methods for determining D10, D50 D90 and D[4,3] include laser light diffraction, such as using equipment sold by Malvern Instruments Ltd., Malvern, Worcestershire, United Kingdom. Other types of equipment may be used, as is known in the art.
The premixes of Example 1 and Example 2 are analyzed for particle size distribution using a Malvern instrument and the results are below: […]

- Tg (glass transition temperature) [1]: 55.48 °C
- D10 [2]: 9.061 μm
- D50 [2]: 22.182 μm
- D90 [2]: 42.598 μm
SMILES: Cc1c(OCC(F)(F)F)ccnc1C[S@@+]([O-])c1nc2ccccc2[nH]1 [Amorphous dexlansoprazole, (+)-2-[(R)-{[3-methyl-4-(2,2,2-trifluoroethoxy)pyridin-2-yl]methyl}sulfinyl]-1H-benzimidazole]
